According to PubChem BioAssay AID2060883 (Molecular Pharmacology Branch, DTP, NCI, 2025):
“And” between values parts separate entries of the source, which are not always exact repeats. Equal entries are not always repeated.

System: 843782-103-R-J1-PDC complex spheroid viability
Assay: Anticancer human tumor 843782-103-R-J1-PDC patient-derived lung adenocarcinoma cell line growth inhibition [RAS]
Details: for viability, T/C: stronger effect = lower value; active = viability on the fitted dose curve at most 10% of control; inactive = the rest
Text: RAS pathway inhibitors in Combinations in Complex Spheroids
A high-throughput screen of multi-cell type tumor spheroids was designed to identify active combinations of RAS pathway inhibitors and targeted small molecules. Complex spheroids include a stromal component modeled by human endothelial cells (HUVEC) and fibroblasts modeled by human mesenchymal stem cells (MSCs). The concentration ranges selected for each drug and investigational agent were based upon clinically achievable concentrations if the clinical Cmax of the agent was known.
Compounds. The drugs and investigational agents: abemaciclib (NSC768073), cobimetinib (NSC768068), divarasib (GDC6063, NSC841802), docetaxel (NSC628503), GDC-1971 (RLY-1971, NSC841576), gemcitabine (NSC613327), inavolisib (NSC800729), ipatasertib (NSC767898), KB-0742 (NSC834161), MRTX-1133 (NSC836407), osimertinib (NSC779217), RMC-4630 (NSC839698), RMC-6236 (NSC851965), RMC-6291 (NSC852671), Ro-3306 (NSC812927), sapanisertib (NSC764658), SN-38 (NSC673596), staurosporine (NSC755774), SY5609 (NSC837396), and tovorafenib (DAY101, NSC766906), were obtained from the National Cancer Institute (NCI) Developmental Therapeutics Program Chemical Repository. The FDA-approved anticancer drug set is available from the NCI Developmental Therapeutics Program. […] The stock solutions were prepared in dimethyl sulfoxide (DMSO, Sigma-Aldrich, St. Louis, MO, cat. D2650) at 800-fold the tested concentration and stored at -70 degrees C prior to their use. All drugs and investigational agents were tested over a range starting from a high concentration at or near the clinical Cmax and decreasing in half-log increments. If the clinical Cmax for an agent had not been determined, the highest concentration tested was 10 microM.
Cell Culture. All cells were maintained in an incubator at 37 degrees C and 5% CO2 with 95% humidity. The PDC lines were cultured according to standard operating procedures established by the NCI PDMR. All PDCs were thawed and cultured in Matrigel-coated flasks prepared with a working solution of 1X Ham's F-12 nutrient mix, without supplementation (Invitrogen, Waltham, MA, cat. 11765054), 100 U/mL penicillin-streptomycin (Invitrogen, cat. 15140122), and 2.5% Matrigel (Corning Inc., Corning, NY, cat. 354248) for the first three passages. The 362531-283-R-J2-PDC and 782815-120-R-J1-PDC lines were cultured in 6C/Colon 1B media, which includes advanced DMEM/F-12 (Thermo Fisher Scientific, cat. 12634028), 10 mM HEPES (Thermo Fisher Scientific, cat. 15630080), 1X GlutaMAX supplement (Thermo Fisher Scientific, cat. 35050061), 0.1 mg/mL primocin (InvivoGen, San Diego, CA, cat. ant-pm-2), 10% defined fetal bovine serum, heat inactivated (HyClone Laboratories Inc., Logan, UT, cat. SH30070.03HI), 50% L-WRN conditioned media (ATCC, cat. CRL-3276), 1.25 mM N-Acetyl-L-cysteine (Sigma-Aldrich, cat. A9165), 10 mM nicotinamide (Sigma-Aldrich, cat. N0636), 1X B-27 supplement (Thermo Fisher Scientific, cat. 17504044), 1X N-2 supplement (Thermo Fisher Scientific, cat. 17502048), 50 ng/mL human EGF (Thermo Fisher Scientific, cat. PHG0311), and 10 microM Y-27632 dihydrochloride (Tocris Bioscience, cat. 1254). The K12877-001-R-J1-PDC line was cultured in 6I media, which includes all 6C/Colon 1B media plus 10 ng/mL human FGF-10 (PeproTech, cat. 100-26), 1 ng/mL human FGF-2 (PeproTech, cat. 100-18B), 1 µM prostaglandin E2 (Tocris Bioscience, cat. 2296), […] hydrocortisone (Sigma-Aldrich, cat. H4001), and […] bovine insulin (Sigma-Aldrich, cat. I6634). The K86415-001-R-J1-PDC line was cultured in 6D media, which includes all 6C/Colon 1B media components minus the L-WRN conditioned media. The 485176-168-R4-J1-PDC was cultured in PANC media, which includes all 6C/Colon 1B media plus 100 ng/mL human FGF-10 (PeproTech, cat. 100-26), 500 nM SB-431542 (Selleckchem, cat. S1067), and 10 nM gastrin (Tocris Bioscience, cat. 3006). […]
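Also: viability read after seven days of compound exposure.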

CC1(C)CCC(Nc2ncc(C(F)(F)F)c(-c3c[nH]c4c(P(C)(C)=O)c(C#N)ccc34)n2)CN1 (stereo unspecified) + CCn1c(-c2cccnc2C(C)OC)c2c3cc(ccc31)N1CCOC(CC(NC(=O)C(C(C)C)N(C)C(=O)C3(F)CCN(C(=O)C#CC(C)(C)N(C)C)CC3)C(=O)N3CCCC(N3)C(=O)OCC(C)(C)C2)C1
3.86 nM: IC50 (curve of first compound, second compound 0.03 µM)
2.29 nM: IC50 (curve of first compound, second compound 0.003 µM)
inactive: viability, T/C (second compound 0.000949 µM, first compound 0.000949 µM) 78.2% | viability, T/C (second compound 0.000949 µM, first compound 0.003 µM) 45.2% | viability, T/C (second compound 0.000949 µM, first compound 0.00949 µM) 29.4% | viability, T/C (second compound 0.000949 µM, first compound 0.03 µM) 26.6% | viability, T/C (second compound 0.000949 µM, first compound 0.0949 µM) 22.9% | viability, T/C (second compound 0.000949 µM, first compound 0.3 µM) 21.8% | viability, T/C (second compound 0.003 µM, first compound 0.000949 µM) 59.9% | viability, T/C (second compound 0.003 µM, first compound 0.003 µM) 46.3% | viability, T/C (second compound 0.003 µM, first compound 0.00949 µM) 32.3% | viability, T/C (second compound 0.003 µM, first compound 0.03 µM) 21% | viability, T/C (second compound 0.003 µM, first compound 0.0949 µM) 17.9% | viability, T/C (second compound 0.003 µM, first compound 0.3 µM) 19.4% | viability, T/C (second compound 0.00949 µM, first compound 0.000949 µM) 59.6% | viability, T/C (second compound 0.00949 µM, first compound 0.003 µM) 51.8% | viability, T/C (second compound 0.00949 µM, first compound 0.00949 µM) 34% | viability, T/C (second compound 0.00949 µM, first compound 0.03 µM) 20.2% | viability, T/C (second compound 0.00949 µM, first compound 0.0949 µM) 19.5% | viability, T/C (second compound 0.00949 µM, first compound 0.3 µM) 19% | viability, T/C (second compound 0.03 µM, first compound 0.000949 µM) 62.9% | viability, T/C (second compound 0.03 µM, first compound 0.003 µM) 55.1% | viability, T/C (second compound 0.03 µM, first compound 0.00949 µM) 33% | viability, T/C (second compound 0.03 µM, first compound 0.03 µM) 22.6% | viability, T/C (second compound 0.03 µM, first compound 0.0949 µM) 18.8% | viability, T/C (second compound 0.03 µM, first compound 0.3 µM) 18% | viability, T/C (second compound 0.0949 µM, first compound 0.000949 µM) 69.3% | viability, T/C (second compound 0.0949 µM, first compound 0.003 µM) 46.8% | viability, T/C (second compound 0.0949 µM, first compound 0.00949 µM) 31.5% | viability, T/C (second compound 0.0949 µM, first compound 0.03 µM) 18.5% | viability, T/C (second compound 0.0949 µM, first compound 0.0949 µM) 17.3% | viability, T/C (second compound 0.0949 µM, first compound 0.3 µM) 17.6% | viability, T/C (second compound 0.3 µM, first compound 0.000949 µM) 57.7% | viability, T/C (second compound 0.3 µM, first compound 0.003 µM) 41.8% | viability, T/C (second compound 0.3 µM, first compound 0.00949 µM) 24.4% | viability, T/C (second compound 0.3 µM, first compound 0.03 µM) 15.5% | viability, T/C (second compound 0.3 µM, first compound 0.0949 µM) 13.6% | viability, T/C (second compound 0.3 µM, first compound 0.3 µM) 14.4%
2.63 nM: IC50 (curve of first compound, second compound 0.0949 µM)
2.53 nM: IC50 (curve of first compound, second compound 0.000949 µM)
3.46 nM: IC50 (curve of first compound, second compound 0.00949 µM)
1.67 nM: IC50 (curve of first compound, second compound 0.3 µM)

CCc1c2c(nc3ccc(O)cc13)-c1cc3c(c(=O)n1C2)COC(=O)[C@]3(O)CC
1.88 nM [middle of 4 runs]: IC50 (curve of compound)
active: viability, T/C (compound 0.00949 µM) 6.94% [middle of 4 runs] | viability, T/C (compound 0.03 µM) 3.31% [middle of 4 runs] | viability, T/C (compound 0.0949 µM) 1.33% [middle of 4 runs] | viability, T/C (compound 0.3 µM) 0.94% [middle of 4 runs]
inactive: viability, T/C (compound 0.000949 µM) 94.2% [middle of 4 runs] | viability, T/C (compound 0.003 µM) 26% [middle of 4 runs]

C[C@@H](NC(=O)c1ncnc(N)c1Cl)c1ncc(C(=O)Nc2cc(C(F)(F)F)c(Cl)cn2)s1
> 10000 nM: IC50 (curve of compound)
inactive: viability, T/C (compound 0.0316 µM) 103% and 104% and 109% (2×) | viability, T/C (compound 0.1 µM) 105% [middle of 4 runs] | viability, T/C (compound 0.316 µM) 99.7% [middle of 4 runs] | viability, T/C (compound 1 µM) 104% (2×) and 113% and 98% | viability, T/C (compound 3.16 µM) 109% [middle of 4 runs] | viability, T/C (compound 10 µM) 103% [middle of 4 runs]
